# From patent publication US20240261224A1, “FORMULATION OF A PAN-JAK INHIBITOR” (KINASET THERAPEUTICS, INC., priority 2022, published 2024)
# Like-named read-outs stand apart in the source and are kept apart here.
# Key:
# [1] = 13-week inhalation toxicology study, NHP model; format: in vivo; conditions: in vivo, inhaled or intranasal, NHP; for AUC(0-t): monkey, read-out: AUC0-24
# Description: (§1) Lactose/MgSt-based formulations of Compound I were evaluated during a 13-week inhalation toxicology study in an NHP model, and the corresponding results are presented in Table 16 below. […] The NOAEL was assigned to the highest dose study (7.9 mg/kg/day).
# [2] = system: NHP; assay: 13-week inhalation toxicology study, NHP model; format: in vivo
# Description: as §1
# [3] = Margin of safety study versus 13-wk rat NOAEL; format: in vivo
# From the text: Results from the margin of safety study of lactose/MgSt-based formulations of Compound I are shown below in Table 17.
# [4] = system: fractional exhaled nitric oxide (FeNO); assay: Phase 1 Part 3: FeNO reduction in moderate to severe asthma on background ICS/LABA; format: in vivo, human; conditions: for Mean Placebo-Corrected % Change from Day 1 Pre-Dose or from Patient's Baseline (FeNO): 4 mg BID (n = 5), Baseline FeNO >35 ppb and blood eosinophils >250 cells/μL; for % subjects achieving FeNO level <25 ppb on Day 10: 4.0 mg BID
# Description: A status summary of the phase 1 clinical trial recruitment is shown below in Table 18. Capsules filled with blend 2a were used to achieve a 0.6 mg target dose of Compound I (0.2 mg capsules×3). Capsules filled with blend 4 were used to achieve 2.0 mg, 4.0 mg, 6.0 mg, 8.0 mg, and 12.0 mg target doses of Compound I (2.0 mg capsule×1; 4.0 mg capsule×1; 2.0 mg capsules×3; 4.0 mg capsules×2; and 4.0 mg capsules×3, respectively). Twice daily dosing (BID) was achieved by repeating the preceding regime. For example, an 8.0 mg BID dosing regime is achieved by administering two doses of 4.0 mg capsules×2.
# Particular FeNO reduction data from FIG. 9 is highlighted below in Table 25. […] More specifically, subjects with Day 1 pre-dose FeNO levels between 33 and 280 ppb reported reductions greater than 20% by Day 10 and subjects with Day 1 pre-dose FeNO levels ranging from 33 to 118 ppb recorded levels less than 25 ppb by Day 10.
# Part 3 involved the administration of a single dose regimen (4 mg BID), to subjects (17 active:6 placebo) with moderate to severe asthma treated with background ISC/LABA therapy, over a 10-day period. Blood samples were collected to enable the measurement of KN-002 concentrations in plasma. The resultant data was used to determine the pharmacokinetic parameters at Day 10 representing the Day on which the final dose was received.
# [5] = target: T1, JAK3 (Homo sapiens, UniProt P52333); conditions: cited from earlier work
# T1 sequence (P52333 1-1124): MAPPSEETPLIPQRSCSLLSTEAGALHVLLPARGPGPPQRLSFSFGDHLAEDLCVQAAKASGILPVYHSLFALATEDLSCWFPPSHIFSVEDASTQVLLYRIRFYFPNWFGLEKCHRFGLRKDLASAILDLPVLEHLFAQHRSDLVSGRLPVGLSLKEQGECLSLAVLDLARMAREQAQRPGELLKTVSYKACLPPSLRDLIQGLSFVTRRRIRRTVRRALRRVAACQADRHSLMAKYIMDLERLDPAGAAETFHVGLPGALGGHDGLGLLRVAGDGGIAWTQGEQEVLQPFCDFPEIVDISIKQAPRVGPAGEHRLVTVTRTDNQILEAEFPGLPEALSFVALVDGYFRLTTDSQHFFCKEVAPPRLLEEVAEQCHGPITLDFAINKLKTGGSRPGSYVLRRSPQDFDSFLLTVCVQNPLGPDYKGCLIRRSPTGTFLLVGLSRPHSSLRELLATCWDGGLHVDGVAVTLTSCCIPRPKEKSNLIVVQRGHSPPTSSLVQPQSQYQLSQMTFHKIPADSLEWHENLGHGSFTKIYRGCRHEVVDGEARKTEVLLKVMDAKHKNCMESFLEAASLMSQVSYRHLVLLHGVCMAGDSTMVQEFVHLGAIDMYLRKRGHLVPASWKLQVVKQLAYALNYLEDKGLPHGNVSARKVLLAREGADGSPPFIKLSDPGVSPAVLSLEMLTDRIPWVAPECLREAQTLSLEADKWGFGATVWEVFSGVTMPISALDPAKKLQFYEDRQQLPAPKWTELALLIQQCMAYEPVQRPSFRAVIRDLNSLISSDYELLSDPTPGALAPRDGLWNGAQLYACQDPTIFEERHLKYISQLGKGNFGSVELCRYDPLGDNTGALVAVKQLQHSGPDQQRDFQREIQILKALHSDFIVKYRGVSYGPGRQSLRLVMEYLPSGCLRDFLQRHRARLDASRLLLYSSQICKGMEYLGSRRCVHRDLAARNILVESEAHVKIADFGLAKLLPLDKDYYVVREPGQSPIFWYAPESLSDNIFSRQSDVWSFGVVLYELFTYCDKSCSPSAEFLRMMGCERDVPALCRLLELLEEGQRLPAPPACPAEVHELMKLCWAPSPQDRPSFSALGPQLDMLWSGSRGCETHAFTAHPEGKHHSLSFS
# [6] = 4.0 mg BID vs 13-week rat study
smiles,measurement,setting,value
"Cn1c(=O)n([C@H]2CCCN(C(=O)CC#N)C2)c2nc(-c3cnn4ccccc34)ccc21 [Compound I, (S)-3-(3-(1-methyl-2-oxo-5-(pyrazolo[1,5-a]pyridine-3-yl)-1H-imidazo[4,5-b]pyridine-3(2H)-yl)piperidin-1-yl)-3-oxopropanenitrile]",AUC(0-t),"[1]; 0.9 mg/kg/day, inhaled 0.9 mg/kg/day, Day 1",203 ng·h/mL
same,AUC(0-t),"[1]; 0.9 mg/kg/day, inhaled 0.9 mg/kg/day, Week 13",167 ng·h/mL
same,AUC(0-t),"[1]; 2.7 mg/kg/day, inhaled 2.7 mg/kg/day, Day 1",408 ng·h/mL
same,AUC(0-t),"[1]; 2.7 mg/kg/day, inhaled 2.7 mg/kg/day, Week 13",361 ng·h/mL
same,AUC(0-t),"[1]; 8 mg/kg/day, inhaled 8.0 mg/kg/day, Day 1",903 ng·h/mL
same,AUC(0-t),"[1]; 8 mg/kg/day, inhaled 8.0 mg/kg/day, Week 13",1160 ng·h/mL
same,NOAEL at 13 weeks,"[1]; non-human primate (NHP), 13-week inhalation, highest dose",7.9 mg/kg/day
same,"Treatment-related effects on clinical signs, bodyweight, food consumption, ophthalmoscopy, blood chemistry, urinalysis or macroscopic pathology","[2]; NHP, 13-week inhalation",No treatment-related effects
same,MMAD,[2]; target delivered dose 0.9 mg/kg/day (low dose),1.9 μm
same,MMAD,[2]; target delivered dose 2.7 mg/kg/day (mid dose),2.3 μm
same,MMAD,[2]; target delivered dose 8.0 mg/kg/day (high dose),2.7 μm
same,"MoS versus inhalation toxicology study NOAELs, Lung exposure (mg/g lung)",[3]; [6],3925
same,"MoS versus inhalation toxicology study NOAELs, Plasma (group mean AUC0-24)",[3]; [6],85.6
same,Group mean AUC0-24 MoS (Phase 1 clinical study versus inhalation tox study NOAELs),[3]; 4.0 mg BID vs 13-wk rat NOAEL,5.6
same,Lung dose of Compound I (mg/g) MoS,"[3]; 4.0 mg BID vs 13-wk rat NOAEL, adjusted for respirability assuming 10%, 25% and 100% lung deposition in rat, NHP and human",25
same,Mean Placebo-Corrected % Change from Day 1 Pre-Dose or from Patient's Baseline (FeNO),[4]; Day 10 + 3 hrs,−37%
same,Mean Placebo-Corrected % Change from Day 1 Pre-Dose or from Patient's Baseline (FeNO),[4]; Day 10 + 6 hrs,−43%
same,Mean Placebo-Corrected % Change from Day 1 Pre-Dose or from Patient's Baseline (FeNO),[4]; Day 10 + 12 hrs,−47%
same,Mean Placebo-Corrected % Change from Day 1 Pre-Dose or from Patient's Baseline (FeNO),[4]; Day 10 mean,−43%
same,Mean Placebo-Corrected % Change from Day 1 Pre-Dose or from Patient's Baseline (FeNO),[4]; Day 10 pre-dose,−44%
same,% subjects achieving FeNO level <25 ppb on Day 10,[4]; ITT,59%
same,Mean placebo-corrected % FeNO reduction from Day 1 pre-dose,"[4]; 4 mg BID, ITT (n = 17), Day 10 + 3 hours",−13.7%
same,Mean placebo-corrected % FeNO reduction from Day 1 pre-dose,"[4]; 4 mg BID, ITT (n = 17), Day 10 + 6 hours",−24.0%
same,Mean placebo-corrected % FeNO reduction from Day 1 pre-dose,"[4]; 4 mg BID, ITT (n = 17), Day 10 + 12 hours",−36.3%
same,Mean placebo-corrected % FeNO reduction from Day 1 pre-dose,"[4]; 4 mg BID, ITT (n = 17), Day 10 mean",−24.2%
same,Mean placebo-corrected % FeNO reduction from Day 1 pre-dose,"[4]; 4 mg BID, ITT (n = 17), Day 10 pre-dose",−22.9%
same,% subjects achieving FeNO level <25 ppb on Day 10,[4]; PP (excludes Day 1 pre-dose FeNO <30 ppb),52%
same,Mean placebo-corrected % FeNO reduction from Day 1 pre-dose,"[4]; 4 mg BID, PP (n = 15, excludes Day 1 pre-dose FeNO <30 ppb), Day 10 + 3 hours",−24.8%
same,Mean placebo-corrected % FeNO reduction from Day 1 pre-dose,"[4]; 4 mg BID, PP (n = 15, excludes Day 1 pre-dose FeNO <30 ppb), Day 10 + 6 hours",−33.3%
same,Mean placebo-corrected % FeNO reduction from Day 1 pre-dose,"[4]; 4 mg BID, PP (n = 15, excludes Day 1 pre-dose FeNO <30 ppb), Day 10 + 12 hours",−37.0%
same,Mean placebo-corrected % FeNO reduction from Day 1 pre-dose,"[4]; 4 mg BID, PP (n = 15, excludes Day 1 pre-dose FeNO <30 ppb), Day 10 mean",−31.9%
same,Mean placebo-corrected % FeNO reduction from Day 1 pre-dose,"[4]; 4 mg BID, PP (n = 15, excludes Day 1 pre-dose FeNO <30 ppb), Day 10 pre-dose",−32.7%
same,FeNO reductions by Day 10,"[4]; 4 mg BID, subjects with Day 1 pre-dose FeNO levels between 33 and 280 ppb",greater than 20%
same,FeNO levels by Day 10,"[4]; 4 mg BID, subjects with Day 1 pre-dose FeNO levels ranging from 33 to 118 ppb",less than 25 ppb
same,"Mean placebo-corrected change in FeNO from Day 1 pre-dose, blood eosinophil subgroup","[4]; Blood eosinophil cut-off ≥0.15 × 10^9/L (n = 16), Day 10 + 3 hours",−26
same,"Mean placebo-corrected change in FeNO from Day 1 pre-dose, blood eosinophil subgroup","[4]; Blood eosinophil cut-off ≥0.15 × 10^9/L (n = 16), Day 10 + 6 hours",−35
same,"Mean placebo-corrected change in FeNO from Day 1 pre-dose, blood eosinophil subgroup","[4]; Blood eosinophil cut-off ≥0.15 × 10^9/L (n = 16), Day 10 + 12 hours",−52
same,"Mean placebo-corrected change in FeNO from Day 1 pre-dose, blood eosinophil subgroup","[4]; Blood eosinophil cut-off ≥0.15 × 10^9/L (n = 16), Day 10 mean",−37
same,"Mean placebo-corrected change in FeNO from Day 1 pre-dose, blood eosinophil subgroup","[4]; Blood eosinophil cut-off ≥0.15 × 10^9/L (n = 16), Day 10 pre-dose",−34
same,"Mean placebo-corrected change in FeNO from Day 1 pre-dose, blood eosinophil subgroup","[4]; Blood eosinophil cut-off ≥0.3 × 10^9/L (n = 11), Day 10 + 3 hours",−44
same,"Mean placebo-corrected change in FeNO from Day 1 pre-dose, blood eosinophil subgroup","[4]; Blood eosinophil cut-off ≥0.3 × 10^9/L (n = 11), Day 10 + 6 hours",−54
same,"Mean placebo-corrected change in FeNO from Day 1 pre-dose, blood eosinophil subgroup","[4]; Blood eosinophil cut-off ≥0.3 × 10^9/L (n = 11), Day 10 + 12 hours",−75
same,"Mean placebo-corrected change in FeNO from Day 1 pre-dose, blood eosinophil subgroup","[4]; Blood eosinophil cut-off ≥0.3 × 10^9/L (n = 11), Day 10 mean",−57
same,"Mean placebo-corrected change in FeNO from Day 1 pre-dose, blood eosinophil subgroup","[4]; Blood eosinophil cut-off ≥0.3 × 10^9/L (n = 11), Day 10 pre-dose",−53
same,Inhibition of JAK3,[5],potent inhibitor
